Results from the NIST ThermoML archive (doi:10.1016/j.jct.2019.05.013).

Legend:
[1] = refractive index (Na D-line) (dimensionless); conditions: 293.15 K; 101.33 kPa; Liquid; Standard Abbe refractometry
[2] = wn = mass fraction of the nth substance listed; conditions: 100 kPa, Liquid; for viscosity: Falling or rolling sphere viscometry; for mass density: Vibrating tube method

CO [methanol]
Conditions | refractive index
[1] | 1.32858

CO [methanol] + O
[2]
Conditions | mass density, w1 = 0.1 [kg/m3] | mass density, w1 = 0.2 [kg/m3] | mass density, w1 = 0.3001 [kg/m3] | mass density, w1 = 0.4 [kg/m3] | mass density, w1 = 0.4999 [kg/m3] | viscosity, w1 = 0.1 [mPa·s] | viscosity, w1 = 0.2 [mPa·s] | viscosity, w1 = 0.3001 [mPa·s] | viscosity, w1 = 0.4 [mPa·s] | viscosity, w1 = 0.4999 [mPa·s]
273.15 K | 984.19 | 972.46 | 960.61 | 945.89 | 928.63 | 2.575 | 3.315 | 3.636 | 3.623 | 3.312
293.15 K | 981.29 | 966.62 | 951.49 | 934.6 | 915.53 | 1.316 | 1.623 | 1.782 | 1.824 | 1.747

O [water] + CO
[2], w2 = 0
Conditions | mass density [kg/m3] | viscosity [mPa·s]
275.15 K | 999.94 | 1.661
293.15 K | – | 0.998
